Key:
[1] = tested on: Hep3B human HCC tumor xenografts; test: Hep3B tumor xenograft in nude mice; assay type: in vivo, mouse
Method: Effects of 32-134D on Hep3B human HCC tumor xenografts. To analyze the effect of HIF inhibitor 32-134D on tumor xenograft growth, Hep3B cells were injected subcutaneously into immunodeficient mice and when tumors reached a volume of 150 mm3 (designated treatment day 1), the mice were treated with vehicle or 32-134D by daily intraperitoneal injection. […] Treatment with 32-134D for 17 days had no effect on mouse body weight (FIG. 6C), appearance or behavior. We treated additional mice with 32-134D and confirmed inhibition of tumor growth without effects on body weight (FIGS. 7A-C).
Protocols were approved by the Johns Hopkins University Animal Care and Use Committee and used in accordance with the NIH Guide for the Care and Use of Laboratory Animals (National Research Council, 2011). Female nude mice (NCI Athymic NCr-nu/nu) and male C57L/J mice were purchased from Charles River and The Jackson Laboratory, respectively. Hep3B (8×106) and Hepa1-6 (1×107) cells were implanted subcutaneously in 6- to 8-week-old mice, and tumor volume was calculated: V=abc×0.52. For Hep3B tumor studies, once tumors reached 100-150 mm3, mice were randomized into groups to receive daily intraperitoneal injection of either vehicle or 32-134D. For Hepa1-6 tumors, mice were randomized to receive treatment once tumors reached a size of 50-100 mm3. Tumors were harvested 4 hours after the last treatment.
Tumors were fixed in 10% formalin in phosphate buffer for 24 hours and placed in PBS the following day for paraffin embedding and sectioning. Anti-CD31 immunohistochemical staining, hematoxylin and eosin counterstaining, and whole slide scanning were performed by NDB Bio […].
Human (EPO, SCF, SDF1a, VEGFA) and mouse (Cxcl1, Cxcl2, Cxcl9, Cxcl10, Il6, Il10, IL22, Vegfa) protein concentrations in tumor homogenates were determined using ELISA kits (Table 4) from Novus Biologicals. Optical density was obtained at 450 nm (corrected for readings at 570 nm) using the VICTOR Nivo plate reader (PerkinElmer). Sample protein concentration was calculated by linear regression from a standard curve.

HIF target genes = test: RT-qPCR of HIF target gene expression in Hep3B cells; assay type: cell-based, human
Method: Based on hit compound 11-88, a number of analogs were prepared in which either halogen substitutions to the indole groups were altered or the central thiazole was replaced by imidazole, isoxazole, oxadiazole, oxazole, pyrazinone, pyridazine, pyrazine, pyrazole, pyridine, thiadiazole, triazine, or triazole. […] The bis-bromoindole thiazole 32-134D and the bis-indole thiadiazole 33-063 (FIGS. 1B and 1C) were further characterized with respect to endogenous HIF target gene expression in Hep3B cells. […] For comparison, we tested the effect of PT2385, which inhibited EPO, NDRG1, ANGPTL4, and VEGFA expression but had no effect on CA9, which is consistent with its HIF-2-selective mechanism of action (Wallace E M et al., Cancer Res. 2016; 76(18):5491-5500). None of the compounds had any effect on RPL13A expression, which is neither hypoxia-induced nor HIF-regulated (FIG. 3).
Human Hep3B and mouse Hepa1-6 cells were purchased from ATCC and grown in high-glucose (4.5 mg/ml) Dulbecco's modified Eagle's medium supplemented with 10% (vol/vol) fetal bovine serum and […] at 37° C. in a 5% CO2/95% air incubator (20% O2). Human cell line identity was authenticated by analysis of short tandem repeats, and all cell lines were maintained mycoplasma free, using PCR-based assays conducted at the Johns Hopkins University Genetic Resources Core Facility. Cells were subjected to hypoxia in a controlled atmosphere chamber (PLAS Labs) with ambient gas mixture containing 1% O2 and 5% CO2.
RNA was extracted using TRIzol Reagent (ThermoFisher). Quantitative Real-time PCR was conducted using SYBR Green PCR Master Mix (BioRad) and reactions were run using the BioRad thermal cycler (BioRad). The mRNA expression of target genes was normalized to the expression of 18S rRNA and the fold change (FC) was calculated based on the threshold cycle (Ct) as
FC=2^−Δ(ΔCt) where ΔCt=Cttarget gene−Ct18S rRNA and Δ(ΔCt)=ΔCttreatment−ΔCtcontrol.

HIF-1α and HIF-2α = test: HIF accumulation in hypoxic D120 hiPSC-derived retinal organoids; assay type: cell-based, human; conditions: 1% O2, 12 hours
Method: To assess the therapeutic potential of 32-134D for diabetic patients, human induced pluripotent stem cell (hiPSC)-derived 3-dimensional (3D) retinal organoids were treated with 32-134D. It has been previously reported that hiPSC-derived 3D retinal organoids cultured under hypoxic conditions (1% O2) behave similar to ischemic human retinal tissue with increased accumulation of both HIF-1α and HIF-2α (J. Zhang et al., J Clin Invest 131 (2021)). By 120 days of differentiation (D120), the inner and outer retinal layers are clearly defined (FIGS. 32A and 32B) and contain the precursors of the major retinal cell types, including outer retina photoreceptors (expressing recoverin), few newly differentiating bipolar cell precursors (lacking expression of recoverin and Pax6), amacrine cells (expressing high levels of Pax6), as well as Müller cells (expressing CRALBP; FIGS. 32C and 32D).
Retinal organoids: An hiPSC line derived from CD34+ cord blood was used in this study (A18945, ThermoFisher Scientific) (P. W. Burridge et al., 2011, PLoS One 6, e18293). Undifferentiated hiPSCs and derived retinal organoids were routinely tested for Mycoplasma contamination by PCR. Cell culture, retinal differentiation, and organoid formation were conducted as previously described (X. Zhong et al., 2014, Nat Commun 5, 4047). Retinal organoids at 120 days of differentiation were used for experiments. […]

Structure (SMILES): Brc1ccc2c(-c3csc(-c4c[nH]c5c(Br)cccc45)n3)c[nH]c2c1 [Compound 32-134D, 4-(6-bromo-1H-indol-3-yl)-2-(7-bromo-1H-indol-3-yl)thiazole]
- tumor xenograft growth ([1]; 20 mg/kg daily intraperitoneal): Partial growth inhibition
- tumor xenograft growth ([1]; 40 mg/kg daily intraperitoneal): maximal growth inhibition
- mass of tumors harvested ([1]; 40 mg/kg/day): significantly decreased
- tumor xenograft growth ([1]; 80 mg/kg daily intraperitoneal): maximal growth inhibition
- blood vessel area in tumors (CD31 immunohistochemistry) ([1]; mouse, in vivo): markedly decreased
- mouse body weight ([1]; treatment for 17 days): no effect
- tumor mRNAs encoding SCF, PGF, EPO, CD73, PDL1, VEGFA, SDF1 ([1]; tumor RNA, RT-qPCR): significant decrease
- EPO, SCF, SDF1 and VEGFA protein in tumors ([1]; whole tumor lysates, ELISA): significantly decreased expression
- hypoxia-induced expression of HIF target genes CA9, ANGPTL4, VEGFA, NDRG1 and EPO (HIF target genes): inhibited
- accumulation of HIF-1α and HIF-2α protein (HIF-1α and HIF-2α): effectively prevented
